# Read-outs that look alike come from different tables or passages of the source.
# Experiments:
# [1] = test system: polymyxin-resistant E. coli (clinical isolate from Brigham and Women's Hospital); assay type: cell-based; details: 37° C. for 24 h
# Method: (§3) The effect of novobiocin/polymyxin combination was further assessed in polymyxin-resistant strains using checkerboard microdilution assays. In these assays, polymyxin-resistant strains (E. coli (clinical isolate from Brigham and Women's Hospital); A. baumannii (ATCC: 19606) mutant that is novobiocin and polymyxin-resistant; and K. pneumoniae (clinical isolate from Brigham and Women's Hospital)) were grown at 37° C. for 24 h.
# [2] = test system: K. pneumoniae, A. baumannii, P. aeruginosa, E. coli; experiment: Log(CFU/mL) vs. time curves (FIG. 3); assay type: cell-based; details: Novobiocin 50-130 μg/mL, Polymyxin B 1.4-2.0 μg/mL
# Method: FIGS. 3A-3D are a set of plots of colony forming units/ml (CFU/ml) over time when untreated, or treated with polymyxin B, novobiocin, or a combination of both. FIG. 3A is a growth curve of Klebsiella pneumoniae. FIG. 3B is a growth curve of Acinetobacter baumannii Novo^R. FIG. 3C is a plot of CFU/ml over time of Pseudomonas aeruginosa. FIG. 3D is a growth curve of Escherichia coli.
# Log(CFU/mL) vs. time curves. Overnight cultures were diluted 1:100 and grown at 37° C., 220 rpm until OD600=0.1. This culture was transferred to four sterile 5 mL tubes and treated with polymyxin B, novobiocin, polymyxin B+novobiocin, or no drug and incubated at 37° C., 220 rpm. At each timepoint, 10 μL from each condition was log10 diluted to 10^−7 and subsequently plated on LB Miller agar containing no antibiotic. Time=0 h represents the CFU/mL count immediately after the initial treatment. Y-values of zero indicate fewer than 10,000 CFUs (limit of detection). Strains are identical to those used in FIG. 1. K. pneumoniae: [Novobiocin]=130 μg/mL, [Polymyxin B]=1.4 μg/mL; A. baumannii: [Novobiocin]=100 μg/mL, [Polymyxin B]=2.0 μg/mL; P. aeruginosa: [Novobiocin]=100 μg/mL, [Polymyxin B]=2.0 μg/mL; E. coli: [Novobiocin]=50 μg/mL, [Polymyxin B]=2.0 μg/mL.
# [3] = test system: wild-type A. baumannii; experiment: Checkerboard microdilution assay with PMB, PMBN, novobiocin, novobiocin aglycone; assay type: cell-based
# [4] = target: T1, LptB2LptFG(ch)C complexes (Escherichia coli, UniProt P0A9V1); experiment: LPS-release assay, right-side-out vesicles to LptA*; assay type: biochemical, E. coli; details: 30° C. (FIG. 9C)
# T1 construct: made in house; host or cells: right-side-out membrane vesicles from E. coli BL-21(λDE3) overexpressing the complex
# T1 sequence (P0AF98 whole entry E84A): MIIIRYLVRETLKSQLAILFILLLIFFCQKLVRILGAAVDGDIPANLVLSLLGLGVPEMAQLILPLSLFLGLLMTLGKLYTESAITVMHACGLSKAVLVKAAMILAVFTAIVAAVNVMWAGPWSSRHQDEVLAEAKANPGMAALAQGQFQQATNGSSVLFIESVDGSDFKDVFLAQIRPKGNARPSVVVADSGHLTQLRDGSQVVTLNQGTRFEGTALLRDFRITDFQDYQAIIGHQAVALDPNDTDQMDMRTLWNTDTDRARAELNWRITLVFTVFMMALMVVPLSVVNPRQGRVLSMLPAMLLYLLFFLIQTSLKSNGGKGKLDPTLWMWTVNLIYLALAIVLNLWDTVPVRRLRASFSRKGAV
# T1 sequence (P0ADC6 whole entry E88A, further chain): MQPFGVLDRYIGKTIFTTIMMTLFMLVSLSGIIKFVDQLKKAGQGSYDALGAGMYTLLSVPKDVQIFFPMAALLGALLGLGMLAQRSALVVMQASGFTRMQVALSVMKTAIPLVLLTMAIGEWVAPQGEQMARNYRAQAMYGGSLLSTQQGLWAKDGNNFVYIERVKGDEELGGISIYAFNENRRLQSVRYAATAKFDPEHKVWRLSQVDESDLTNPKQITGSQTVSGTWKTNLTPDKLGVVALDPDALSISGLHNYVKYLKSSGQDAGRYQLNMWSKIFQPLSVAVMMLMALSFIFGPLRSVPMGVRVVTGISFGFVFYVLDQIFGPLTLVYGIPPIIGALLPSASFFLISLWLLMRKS
# T1 sequence (P0A9V1 2-241): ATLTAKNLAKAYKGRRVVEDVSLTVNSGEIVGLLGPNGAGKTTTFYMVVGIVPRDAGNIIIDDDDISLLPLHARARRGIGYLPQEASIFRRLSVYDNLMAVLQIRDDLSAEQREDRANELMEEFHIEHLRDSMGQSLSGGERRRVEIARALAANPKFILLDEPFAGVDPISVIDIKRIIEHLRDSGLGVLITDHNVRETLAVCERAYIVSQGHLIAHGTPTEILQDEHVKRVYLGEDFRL
# T1 sequence (P0ADV9 whole entry, further chain): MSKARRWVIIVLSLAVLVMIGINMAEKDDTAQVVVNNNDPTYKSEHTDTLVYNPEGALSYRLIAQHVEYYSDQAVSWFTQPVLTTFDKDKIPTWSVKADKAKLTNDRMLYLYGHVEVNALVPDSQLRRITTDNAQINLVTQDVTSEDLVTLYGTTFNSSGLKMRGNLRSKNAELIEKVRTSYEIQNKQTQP
# Method: FIG. 9A is a schematic drawing showing the assay to monitor LPS release from right-side-out vesicles to LptA* (LptA(I36pBPA)). Vesicles containing overexpressed wild-type or mutant LptB2FGC complexes were incubated with LptA* and ATP at 30° C. to initiate LPS extraction and transport from the vesicles to LptA*. Samples were taken at different time points and UV-irradiated to crosslink LPS to LptA*, and accumulation of LPS-LptA* adducts was detected using LPS immunoblots.
# The assay detects via immunoblot LPS that becomes crosslinked to LptA* in the presence of UV light. […] By comparison, vesicles containing LptB2LptFG(ch)C complexes released less LPS over time (FIG. 9B, lanes 5-8). These experiments provide direct evidence that the amino acid changes in LptFG(ch), which were known to affect complex formation with LptB, impair LPS release. […] These compounds also increase LPS release from vesicles containing wild-type LptB2FGC complexes or LptB(R91 S)2FGC complexes (FIG. 17).
# The in vitro LPS-transport experiments in FIGS. 9B, 9C, and 17 were set-up as described in (Okuda et al. Science 2012, 338, 1214-1217) with some modifications. […]
# Immunoblotting was used to assess LptA*-LPS levels in each sample. […] LptA levels were assessed similarly, using rabbit anti-LptA antiserum followed by donkey anti-rabbit horseradish peroxidase conjugate (GE Amersham). […]
# [5] = test system: polymyxin-resistant K. pneumoniae (clinical isolate from Brigham and Women's Hospital); assay type: cell-based; details: 37° C. for 24 h
# Method: as §3
# [6] = test system: A. baumannii (ATCC: 19606) mutant that is novobiocin and polymyxin-resistant; experiment: Checkerboard microdilution assay, polymyxin-resistant strain; assay type: cell-based; details: 37° C. for 24 h
# Method: as §3
# [7] = test system: lptB1; experiment: Disk diffusion assay; assay type: cell-based, E. coli; details: Escherichia coli
# Method: (§1) Zones of inhibition were measured in disk diffusion assays of wild type, IptB1, and suppressors IptB1(R144H) and IptB1(G33C) pictured in FIG. 6B. Assays were conducted with 6-mm disks. Numbers outside of parentheses report the diameter of the zone of total growth inhibition (in mm), while numbers inside parenthesis report the diameter of the zone of partial growth inhibition.
# (§2) Disk diffusion assays were performed as described in Sherman et al., Proc. Natl. Acad. Sci. USA 2014, 111, 4982-4987. Premade Sensi-Disc (BD-Beckton, Dickinson and Company) were used for bacitracin 10IU, erythromycin 15 μg, novobiocin 30 μg, and rifampin 5 μg.
# [8] = test system: lptB1(G33C); experiment: Disk diffusion assay; assay type: cell-based, E. coli; details: Escherichia coli, read-out: Zone of inhibition, diameter of the zone of total growth inhibition
# Method: as §1, §2
# [9] = test system: lptB1(R144H); experiment: Disk diffusion assay; assay type: cell-based, E. coli; details: Escherichia coli, read-out: Zone of inhibition, diameter of the zone of total growth inhibition
# Method: as §1, §2
# [10] = test system: wild type; experiment: Disk diffusion assay; assay type: cell-based, E. coli; details: Escherichia coli; 6-mm disks; bacitracin 10IU, erythromycin 15 μg, novobiocin 30 μg, rifampin 5 μg, nalidixic acid 5 μg; read-out: Zone of inhibition, diameter of the zone of total growth inhibition
# Method: as §1, §2
# [11] = test system: Gram-negative pathogens; experiment: Checkerboard microdilution assays between polymyxin B and novobiocin (FIG. 1A-1F); assay type: cell-based; details: six strains of FIG. 1A-1F, 37° C. for 24 h
# Method: Checkerboard data are representative of at least three biological replicates.
# Checkerboard microdilution assays between polymyxin B and novobiocin were performed in wild-type strains (unless otherwise noted) grown at 37° C. for 24 h. Checkerboard data (FIG. 1A-1F) are representative of at least three biological replicates. The following strains were tested: A) Wild-type Escherichia coli, ATCC 25922; B) Wild-type Enterobacter cloacae; ATCC 13047) Wild-type Klebsiella pneumoniae, ATCC 700721; D) Wild-type Pseudomonas aeruginosa, ATCC 15692 (PAO1); E) Wild-type Acinetobacter baumannii, ATCC 19606; F) novobiocin-resistant Acinetobacter baumannii, ATCC 19606 gyrB(R150C).
smiles,measurement,setting,value
"CO[C@@H]1[C@@H](OC(N)=O)[C@@H](O)[C@H](Oc2ccc3c(O)c(NC(=O)c4ccc(O)c(CC=C(C)C)c4)c(=O)oc3c2C)OC1(C)C [Novobiocin, novobiocin]",synergy with polymyxin B,[1],synergizes with polymyxin B
same,"killing by combination with polymyxin B, CFU/mL over time",[2],synergy is bactericidal
same,synergy with PMBN,[3],exhibits synergy
same,LPS release from vesicles to LptA*,[4],stimulate LPS release from the LptB2LptFG(ch)C vesicles in a concentration dependent manner
same,synergy with polymyxin B,[5],synergizes with polymyxin B
same,synergy with polymyxin B,[6],synergizes with polymyxin B
same,zone of inhibition at 30 µg/disc,"[7]; read-out: Zone of inhibition, diameter of the zone of partial growth inhibition (in parentheses)",24 mm
same,zone of inhibition at 30 µg/disc,"[7]; read-out: Zone of inhibition, diameter of the zone of total growth inhibition",14 mm
same,zone of inhibition at 30 µg/disc,[8],< 6 mm
same,zone of inhibition at 30 µg/disc,[9],< 6 mm
same,zone of inhibition at 30 µg/disc,[10],< 6 mm
same,synergy with polymyxin B,[11],synergizes with polymyxin B to kill Gram-negative pathogens in vitro
